Test results as given in patent publication US7317125B2 (Hoffman-La Roche Inc., priority 2005, dated 2008).
pEC50: −log10 of the molar value.

Molecular target: T1, DGAT1 (Homo sapiens, UniProt O75907)
T1 construct: expressed in transfected cells; host or cells: CHOK1
T1 sequence (O75907 1-488): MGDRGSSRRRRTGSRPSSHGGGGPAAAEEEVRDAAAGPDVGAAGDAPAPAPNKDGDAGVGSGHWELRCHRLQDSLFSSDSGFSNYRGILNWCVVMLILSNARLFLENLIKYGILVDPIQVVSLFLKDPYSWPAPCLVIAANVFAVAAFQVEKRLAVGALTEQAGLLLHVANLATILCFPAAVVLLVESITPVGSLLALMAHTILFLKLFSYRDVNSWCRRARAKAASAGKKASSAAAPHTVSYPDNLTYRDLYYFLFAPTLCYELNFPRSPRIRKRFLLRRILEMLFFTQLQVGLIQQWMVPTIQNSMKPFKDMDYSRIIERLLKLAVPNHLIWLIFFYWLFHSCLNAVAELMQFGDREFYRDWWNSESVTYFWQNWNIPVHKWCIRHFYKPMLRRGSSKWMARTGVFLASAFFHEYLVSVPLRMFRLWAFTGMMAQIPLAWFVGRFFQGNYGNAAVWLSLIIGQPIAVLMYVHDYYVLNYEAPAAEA
Experiment: DGAT CHOK1 Cell Assay
Assay type: cell-based
Settings: CHOK1 cells transfected with DGAT1, 14C palmitic acid, 1 hour at 37° C., triglyceride by TLC
Text: Materials for the assay were: petroleum ether (J. T. Baker #9268-22); diethyl ether (Aldrich #30995-8); acetic acid; 1,2-dioleoyl-3-palmitoyl-glycerol (Sigma D-1782); ^[…] Palmitic Acid (56.0 mCi/mmol PerkinElmer Life Sciences # NEC 075H); DMEM/F12 (Gibco #11330-032); fetal bovine serum; L-Glutamine; G418/ml media; DMEM High Glucose (Gibco #11995-065); BSA Fraction V Fatty Acid Free (Roche #100 377); 20×°cm silica gel 60 glass plates (EM Science Plates #5721/7).
CHOK1/DGAT cell culture medium was prepared with DMEM/F12 (Gibco #11330-032), […], and 20 ul G418/ml media. 1,2-dioleoyl-3-palmitoyl-glycerol was prepared by dissolving 10 mg into 1 ml chloroform and stored at −20° C. in 100 μl aliquots. Test compounds were prepared as 10 mM stock solutions in DMSO and store at −20° C. before use. Test dilutions were prepared by five fold serial dilutions over final concentrations.
CHOK1 cells transfected with DGAT1 were diluted in 6 well plates at 2.5×10^5 cells per well and cultured overnight. Cells were then washed twice with PBS. Test compound solutions (10 μl/2 ml media aliquots) in DMEM High Glucose with 0.01% BSA (fatty acid free) were added to cell culture plates at 800 μl per well. ^14C Palmitic acid (0.5 μCi, 5 μl) was added to each well. The plates were incubated for 1 hour at 37° C. After the incubation period, the plates were placed on ice, cells were scraped into media and transferred to microfuge tubes. 400 μl chloroform:methanol (2:1) was added to each tube. Each tube was briefly vortexed by hand, then mechanically vortexed for 10 minutes. Each tube was then centrifuged at 14,000 RPM for 10 minutes at 4° C. and the bottom layer removed and transferred to a new microfuge tube.
Extracted samples were spotted onto TLC plates at 20 μl per lane. The TLC plates were eluted with a solvent mixture of petroleum ether, diethyl ether and acetic acid (80:20:1) and air dried. Trigylceride (TG) spots were visualized by placing in an iodine chamber for several minutes. 1 μl of ^14C palmitic acid (diluted 1:10 in 100% EtOH) was spotted on the TG standard lane (at TG level) as a reference. The TLC plates were wrapped in plastic wrap and placed in a phosphorimager cassette for scanning.
The EC50 values for those compounds tested in this Example were generated using an Excel template, the results of which are shown in Table II: […]

pEC50 | Structure (SMILES)
4.95 | CC(C)N(NC(=O)c1ccoc1)C(=O)COc1ccc(F)cc1-c1ccccc1OC(F)(F)F [Example 37, furan-3-carboxylic acid N′-[2-(5-fluoro-2′-trifluoromethoxy-biphenyl-2-yloxy)-acetyl]-N′-isopropyl-hydrazide]
5.53 | CC(C)N(NC(=O)c1ccccc1)C(=O)COc1ccc(F)cc1-c1ccc(F)cc1F [Example 24, benzoic acid N′-[2-(5,2′,4′-trifluoro-biphenyl-2-yloxy)-acetyl]-N′-isopropyl-hydrazide]
6.46 | CC(C)CNc1ccc(C(=O)NN(C(=O)COc2ccc(F)cc2-c2ccccc2OC(F)(F)F)C(C)C)cc1 [Example 57, 4-(isobutylamino)-benzoic acid N′-[2-(5-fluoro-2′-trifluoromethoxy-biphenyl-2-yloxy)-acetyl]-N′-isopropyl hydrazide]
5.89 | COc1cccc(-c2ccccc2SCC(=O)N(NC(=O)c2ccccc2)C(C)C)c1 [Example 50, benzoic acid N′-[2-(3′-methoxy-biphenyl-2-ylsulfanyl)-acetyl]-N′-isopropyl-hydrazide]
5.48 | CC(C)N(NC(=O)c1ccsc1)C(=O)COc1ccc(F)cc1-c1ccccc1OC(F)(F)F [Example 42, thiophene-3-carboxylic acid N′-[2-(5-fluoro-2′-trifluoromethoxy-biphenyl-2-yloxy)-acetyl]-N′-isopropyl hydrazide]
5.91 | CC(C)N(NC(=O)C1CCOCC1)C(=O)COc1ccc(F)cc1-c1ccccc1OC(F)(F)F [Example 34, tetrahydro-pyran-4-carboxylic-acid-N′-[2-(5-fluoro-2′-trifluoromethoxy-biphenyl-2-yloxy)-acetyl]-N′-isopropyl-hydrazide]
5.31 | CC(C)Oc1ccccc1-c1cc(F)ccc1OCC(=O)N(NC(=O)c1ccccc1)C(C)C [Example 15, benzoic acid N′-[2-(5-fluoro-2′-isopropoxy-biphenyl-2-yloxy)-acetyl]-N′-isopropyl-hydrazide]
6.04 | CC(C)N(NC(=O)c1ccccc1)C(=O)COc1ccc(F)cc1-c1cccc(Cl)c1 [Example 10]
5.66 | CCCOc1ccccc1-c1cc(F)ccc1OCC(=O)N(NC(=O)c1ccccc1)C(C)C [Example 17, benzoic acid N′-[2-(5-fluoro-2′-propoxy-biphenyl-2-yloxy)-acetyl]-N′-isopropyl-hydrazide]
5.55 | CC(C)N(NC(=O)C1CCCCC1)C(=O)COc1ccc(F)cc1-c1ccccc1OC(F)(F)F [Example 38, cyclohexanecarboxylic acid N′-[2-(5-fluoro-2′-trifluoromethoxy-biphenyl-2-yloxy)-acetyl]-N′-isopropyl-hydrazide]
6.11 | CC(C)N(NC(=O)C1CCSCC1)C(=O)COc1ccc(F)cc1-c1ccccc1OC(F)(F)F [Example 41, tetrahydro-thiopyran-4-carboxylic acid N′-[2-(5-fluoro-2′-trifluoromethoxy-biphenyl-2-yloxy)-acetyl]-N′-isopropyl hydrazide]
5.46 | CC(C)N(NC(=O)c1cccs1)C(=O)COc1ccc(F)cc1-c1ccccc1OC(F)(F)F [Example 40, thiophene-2-carboxylic acid N′-[2-(5-fluoro-2′-trifluoromethoxy-biphenyl-2-yloxy)-acetyl]-N′-isopropyl hydrazide]
5.89 | Cc1cccc(-c2cc(F)ccc2OCC(=O)N(NC(=O)c2ccccc2)C(C)C)c1C [Example 19, benzoic acid N′-[2-(2′,3′-dimethyl-5-fluoro-biphenyl-2-yloxy)-acetyl]-N′-isopropyl-hydrazide]
5.86 | CCc1ccccc1-c1cc(C#N)ccc1OCC(=O)N(NC(=O)c1ccccc1)C(C)C [Example 29, benzoic acid N′-[2-(5-cyano-2′-ethyl-biphenyl-2-yloxy)-acetyl]-N′-isopropyl-hydrazide]
5.17 | COc1ccccc1-c1ccccc1SCC(=O)N(NC(=O)c1ccccc1)C(C)C [Example 53, benzoic acid N′-[2-(2′-methoxy-biphenyl-2-ylsulfanyl)-acetyl]-N′-isopropyl-hydrazide]
5.99 | Cc1ccccc1-c1cc(F)ccc1OCC(=O)N(NC(=O)c1ccccc1)C(C)C [Example 3, benzoic acid N′-[2-(5-fluoro-2′-methyl-biphenyl-2-yloxy)-acetyl]-N′-isopropyl-hydrazide]
